Laboratory results from patent US6613762B2, “Gambogic acid, analogs and derivatives as activators of caspases and inducers of apoptosis” (Cytovia, Inc., priority 1999, dated 2003).

How the values were obtained:
[1] = system: human non-small cell lung cancer cell line A-549; assay: Inhibition of cell proliferation (GI50) and cell death (LC50), A-549; type: cell-based; conditions: A-549, 48 h; read-out: GI50 (dose for 50% inhibition of cell proliferation)
Procedure: (§1) T47D, ZR-75-1, PC-3, human prostate cancer cell line DU-145, human non-small cell lung cancer cell line A-549, human small cell lung cancer cell line SHP-77, HL-60 and MRC-5 cells were grown and harvested as in Example 90. […] The samples were mixed by agitation and incubated at 37° C. for 2-4 h in a 5% CO2-95% humidity incubator. […] This determines the possible background absorbance of the test compounds. No absorbance for gambogic acid or its analogs or derivatives was found at 490 nm. After the 2-4 h incubation, the samples were read for absorbance as above (ATest).
(§2) Baseline for GI50 (dose for 50% inhibition of cell proliferation) and LC50 (dose for 50% cell death) of initial cell numbers was determined by adding an aliquot of 90 μl of cells or 90 μl of media, respectively, to wells of a 96-well microtiter plate containing 10 μl of a 10% DMSO in RPMI-1640 media solution. […] The samples were mixed by agitation and incubated at 37° C. for 2-4 h in a 5% CO2-95% humidity incubator. Absorbance was read as above, (AT=0) defining absorbance for initial cell number used as baseline in GI50 determinations and (Amin) defining absorbance for media alone used as baseline in LC50 determinations.
(§3) GI50 (dose for 50% inhibition of cell proliferation)
(§4) LC50 (dose for 50% cell death)
(§5) 50=100×[(ATest−Amin)/(AT=0−Amin)]

[2] = system: human small cell lung cancer cell line SHP-77; assay: Inhibition of cell proliferation (GI50) and cell death (LC50), SHP-77; type: cell-based; conditions: SHP-77, 48 h
Procedure: as §1, §2, §3, §4, §5

HL-60 cells = assay: Inhibition of cell proliferation (GI50) and cell death (LC50), HL-60; type: cell-based; conditions: HL-60, 48 h
Procedure: as §1, §2, §3, §4, §5

MRC-5 cells = assay: Inhibition of cell proliferation (GI50) and cell death (LC50), MRC-5; type: cell-based; conditions: MRC-5, 48 h
Procedure: as §1, §2, §3, §4, §5

[3] = system: caspase activity, SHP-77 cells; assay: Caspase induction and its inhibition by caspase inhibitor (Example 97), SHP-77; type: cell-based, human; design: key to Inhibition of caspase activity by Inhibitor: The caspase activity detected was inhibited by the caspase inhibitor (+)
Procedure: (§6) T47D, ZR-75, PC3, SHP-77 and A-549 cells were maintained and harvested as described in Example 90. Cells were added to 96-well plates as described in Example 90. The cells were treated with 10 μM gambogic acid, in the presence and in the absence of 10 μM caspase inhibitor cbz-Val-Asp-fmk (Cytovia, Inc.; WO99/18781). The plate was incubated up to 24 h at 37° C in a 5% CO2-95% humidity incubator. Caspase activity was determined by addition of a fluorogenic substrate as described in Example 90.
(§7) Gambogic acid induced caspase activity in a ratio of greater than 2.5 (+) above untreated cell levels in all the tested cancer cell lines (Table IV). The caspase activity detected was inhibited by the caspase inhibitor (+), confirming that the fluorescent signal was due to caspase activity.

[4] = system: caspase activity, A-549 cells; assay: Caspase induction and its inhibition by caspase inhibitor (Example 97), A-549; type: cell-based, human; design: key to Inhibition of caspase activity by Inhibitor: The caspase activity detected was inhibited by the caspase inhibitor (+)
Procedure: as §6, §7

Jurkat T leukemia cells = assay: Apoptotic morphology in Jurkat cells; type: cell-based
Procedure: Jurkat T leukemia cells were grown in RPMI 1640 media (Life Technologies, Inc.)+10% FCS (Sigma Chemical Company) in a 5% CO2-95% humidity incubator at 37° C., and maintained at a cell density between 4 and 8×10^5 cells/ml. Cells were harvested at 200× g and resuspended at 1-2×10^6 cells/ml into RPMI 1640 media+10% FCS, and 3 ml of the cells was dispensed in each of three wells of a 6-well plate. One of the wells was treated with 10 μM caspase inhibitor cbz-Val-Asp-fink (Cytovia, Inc.; WO99/18781) and the plate was incubated at 37° C. in a 5% CO2-95% humidity incubator for 1 h prior to addition of gambogic acid. The wells with and without the caspase inhibitor were treated with 10 μM gambogic acid. The third well was treated with solvent (control cells). The plate was incubated at 37° C. in a 5% CO2-95% humidity incubator.
At 30 min. after addition of gambogic acid an aliquot of cells from each well was taken into the capillary slides and observed under a phase-contrast microscope.

[5] = system: poly(ADP)ribose polymerase (PARP) cleavage, Jurkat cells; assay: PARP cleavage western blot, Jurkat cells; type: cell-based, human; conditions: 2.5 μM, 2 h (FIG. 5A)
Procedure: (§8) Cleavage of the enzyme poly(ADP)ribose polymerase (PARP) by caspase-3 and related proteases is considered to be one of the molecular hallmarks of caspase-mediated apoptosis. Therefore, the ability of gambogic acid to induce PARP cleavage in four different human tumor cell lines (Jurkat cells, HL-60 cells, T47D cells and PC3 cells) was determined.
(§9) Cells were cultured in complete growth medium containing 10% FBS and treated with gambogic acid at concentrations of 2.5 μM or 5 μM for 2 to 4 h. Control cultures were treated with a drug vehicle (DMSO), or the well-characterized apoptosis inducer, staurosporine. At the end of the apoptosis induction period, the cells were harvested, washed once with PBS, quick-frozen on dry ice, and stored at −80° C. The cells were then lysed in a standard immunoblotting lysis buffer and samples of the lysates were electrophoresed on 4% to 20% gradient polyacrylamide gels. The proteins in the gels were then transferred to PVDF membranes and probed with a commercially-available rabbit polyclonal antibody to PARP.

[6] = system: poly(ADP)ribose polymerase (PARP) cleavage, HL-60 cells; assay: PARP cleavage western blot, HL-60 cells; type: cell-based, human; conditions: 2.5 μM, 2 h (FIG. 5B)
Procedure: as §8, §9

[7] = system: poly(ADP)ribose polymerase (PARP) cleavage, T47D cells; assay: PARP cleavage western blot, T47D cells; type: cell-based, human
Procedure: as §8, §9

KB-V1 cell line = conditions: reported by Lin et al., Magn. Reson. Chem. 31:340-347 (1993); cited from earlier work
[8] = read-out: GI50 (dose for 50% inhibition of cell proliferation)
[9] = read-out: LC50 (dose for 50% cell death)

CC(C)=CCC[C@]1(C)C=Cc2c(O)c3c(c(CC=C(C)C)c2O1)O[C@]12C(=C[C@@H]4C[C@H]1C(C)(C)O[C@@]2(C/C=C(/C)C(=O)O)C4=O)C3=O [Example 1, Gambogic Acid]
GI50 [1]: 800 nM
GI50 [2, 8]: 500 nM
CC50 [2, 9]: 500 nM
GI50 (HL-60 cells; [8]): 500 nM
CC50 (HL-60 cells; [9]): 700 nM
GI50 (MRC-5 cells; [8]): 400 nM
CC50 (MRC-5 cells; [9]): 500 nM
Inhibition of caspase activity by Inhibitor ([3]; SHP-77, 10 μM gambogic acid with 10 μM caspase inhibitor cbz-Val-Asp-fmk): +
Caspase activity ([3]; SHP-77, 10 μM gambogic acid, up to 24 h): + (Gambogic acid induced caspase activity in a ratio of greater than 2.5 (+) above untreated cell levels)
Inhibition of caspase activity by Inhibitor ([4]; A-549, 10 μM gambogic acid with 10 μM caspase inhibitor cbz-Val-Asp-fmk): +
Caspase activity ([4]; A-549, 10 μM gambogic acid, up to 24 h): + (Gambogic acid induced caspase activity in a ratio of greater than 2.5 (+) above untreated cell levels)
Cell morphology of Jurkat cells in presence of caspase inhibitor (Jurkat T leukemia cells; 10 μM gambogic acid, 30 min, with 10 μM caspase inhibitor cbz-Val-Asp-fink (FIG. 3C)): prevented the morphological changes
Cell morphology of Jurkat cells (Jurkat T leukemia cells; 10 μM, 30 min (FIG. 3B)): blebbing and cellular fragmentation
PARP cleavage [5]: almost complete PARP cleavage
PARP cleavage [6]: almost complete PARP cleavage
PARP cleavage ([7]; 2.5 μM and 5 μM, 4 h (FIG. 5C)): almost complete PARP cleavage
PARP cleavage ([7]; 2.5 μM, 2 h (FIG. 5C)): moderate induction of PARP cleavage
PARP cleavage ([7]; 5 μM, 2 h (FIG. 5C)): almost complete PARP cleavage
Cytotoxicity against KB-V1 cell line (KB-V1 cell line): cytotoxic
